# “Also recorded” adds a separate entry of the source. Like-named read-outs stand apart in the source and are kept apart here.
# Columns and labels:
# [1] = Pharmacokinetics of RTX after intra-articular injection in the Phase 1b study; type: in vivo, human; details: for Number of RTX subjects with quantifiable PK / Number of subjects with BQL of RTX: 6 subjects with PK measured; for Cmax / AUC(0-t): human, in vivo, other: intra-articular injection
# [2] = system: subjects with moderate to severe osteoarthritis of the knee; details: for Procedure-associated pain (post-procedural pain and injection site pain), patients reporting: RTX patients; for Procedure-associated pain reported as mild / Procedure-associated pain reported as moderate: RTX treated patients
# [3] = system: pain due to moderate to severe osteoarthritis of the knee; assay: Phase 1b double-blind study of intra-articular resiniferatoxin versus placebo: efficacy (WOMAC and NPRS pain scores); type: in vivo, human; details: for Patient reported WOMAC A1 and NPRS pain scores: all dose levels
# Experimental: The study, described as “Phase 1b double-blind study assesses safety and preliminary efficacy of intra-articular administration of resiniferatoxin versus placebo for the treatment of pain due to moderate to severe osteoarthritis of the knee,” was performed.
# Subjects with moderate to severe osteoarthritis diagnosed based on ACR diagnostic criteria and X-ray imaging were enrolled in a phase 1b double-blind study to assess the safety, tolerability and preliminary efficacy of intra-articular administration of resiniferatoxin or placebo for the treatment of moderate to severe pain due to osteoarthritis of the knee. Patients met the following criteria: (1) baseline pain score in the index knee (WOMAC pain subscale question A1) of ≥5 but ≤9 during four weeks prior to enrollment; (2) mean NPRS score of ≥5 but ≤9 during 8 of 10 days prior to enrollment; and (3) pain lasted for at least 6 months prior to enrollment.
# As of August 2019, the enrollment of all planned dose level cohorts was completed. 40 patients have enrolled in these dose-escalation cohorts, 30 receiving RTX and 10 receiving placebo (multicenter, randomized, double-blind, placebo controls). In each cohort, six patients received intraarticular RTX and two received a saline control (placebo arm). 69% are female and 31% are male. The median age is 62 (range 44-83), and the baseline NPRS A1 score was mean 6.5 (S.D. 1.5).
# The patients were treated with a one-time intraarticular dose of resiniferatoxin (RTX) or saline placebo at escalating dose level cohorts of 5 μg, 12.5 μg, 20 μg and 30 μg in 5 or 10 mL in dose escalation cohorts. For each 8-patient cohort, the first patient was considered a sentinel patient and received open-label drug. Upon confirmation of safety in the sentinel patient, the remaining 7 patients in the cohort were enrolled in a blinded fashion, 2 patients receiving placebo and 5 patients receiving RTX. After confirmation of safety at each dose level, the next higher dose level was opened for enrollment. Patients were followed for safety and efficacy over a 12-week period. Patients had the option to provide additional follow-up to 52 weeks. Efficacy was assessed using the patient reported WOMAC pain scores and NPRS pain scores. As per protocol, the treatment assignment could be unblinded at week 12.
# [4] = 30 μg, Cohort 6, 30 μg/5 or 10 ml, subject with quantifiable PK
compound,measurement,setting,value
"C=C(C)[C@]12C[C@@H](C)[C@@]34O[C@](Cc5ccccc5)(O[C@@H]1[C@@H]3C=C(COC(=O)Cc1ccc(O)c(OC)c1)C[C@]1(O)C(=O)C(C)=C[C@@H]41)O2 [RTX, resiniferatoxin]",Number of RTX subjects with quantifiable PK,"[1]; Cohort 1, 5 μg/5 ml",1
same,Number of subjects with BQL of RTX,"[1]; Cohort 1, 5 μg/5 ml",5
same,Number of RTX subjects with quantifiable PK,"[1]; Cohort 4, 12.5 μg/5 ml",0
same,Number of subjects with BQL of RTX,"[1]; Cohort 4, 12.5 μg/5 ml",6
same,Number of RTX subjects with quantifiable PK,"[1]; Cohort 4a, 12.5 μg/10 ml",1
same,Number of subjects with BQL of RTX,"[1]; Cohort 4a, 12.5 μg/10 ml",5
same,Number of RTX subjects with quantifiable PK,"[1]; Cohort 5, 20 μg/5 ml",2
same,Number of subjects with BQL of RTX,"[1]; Cohort 5, 20 μg/5 ml",4
same,Number of RTX subjects with quantifiable PK,"[1]; Cohort 6, 30 μg/5 or 10 ml",1
same,Number of subjects with BQL of RTX,"[1]; Cohort 6, 30 μg/5 or 10 ml",5
same,Detectability of RTX (pharmacokinetic data),"[1]; all PK cohorts, intra-articular injection",undetectable in most patients
same,Cmax,"[1]; 5 μg, Cohort 1, 5 μg/5 ml, subject with quantifiable PK",0.121 ng/mL
same,AUC(0-t),"[1]; 5 μg, Cohort 1, 5 μg/5 ml, subject with quantifiable PK, read-out: AUC (0-6 hr)",0.509 ng·h/mL
same,Cmax,"[1]; 12.5 μg, Cohort 4a, 12.5 μg/10 ml, subject with quantifiable PK",0.103 ng/mL
same,AUC(0-t),"[1]; 12.5 μg, Cohort 4a, 12.5 μg/10 ml, subject with quantifiable PK, read-out: AUC (0-6 hr)",0.146 ng·h/mL
same,Cmax,"[1]; 20 μg, Cohort 5, 20 μg/5 ml, first subject with quantifiable PK",0.071 ng/mL
same,AUC(0-t),[1]; [4],0.0854 ng·h/mL
same,Cmax,[1]; [4],0.0878 ng/mL
same,DMC assessment,"[2]; Cohort 1, 5 μg",No DLTs
same,Notable AE's,"[2]; Cohort 1, 5 μg",None
same,DMC assessment,"[2]; Cohort 2, 12.5 μg",No DLTs
same,Notable AE's,"[2]; Cohort 2, 12.5 μg",None
same,DMC assessment,"[2]; Cohort 3, 12.5 μg (in 10 ml)",No DLTs
same,Notable AE's,"[2]; Cohort 3, 12.5 μg (in 10 ml)",None
same,DMC assessment,"[2]; Cohort 4, 20 μg",No DLTs
same,Notable AE's,"[2]; Cohort 4, 20 μg",None
same,DMC assessment,"[2]; Cohort 5, 30 μg",No DLTs
same,Notable AE's,"[2]; Cohort 5, 30 μg",None
same,"TEAE Areflexia, Mild: frequency",[2]; RTX All Cohorts (N = 57),(3.5%)
same,"TEAE Areflexia, Mild: number of subjects",[2]; RTX All Cohorts (N = 57),2
same,"TEAE Areflexia, Moderate: frequency",[2]; RTX All Cohorts (N = 57),(3.5%)
same,"TEAE Areflexia, Moderate: number of subjects",[2]; RTX All Cohorts (N = 57),2
same,"TEAE Arthralgia, Mild: frequency",[2]; RTX All Cohorts (N = 57),(7.0%)
same,"TEAE Arthralgia, Mild: number of subjects",[2]; RTX All Cohorts (N = 57),4
same,"TEAE Arthralgia, Moderate: frequency",[2]; RTX All Cohorts (N = 57),(1.8%)
same,"TEAE Arthralgia, Moderate: number of subjects",[2]; RTX All Cohorts (N = 57),1
same,"TEAE EOG QTc prolonged, Mild: frequency",[2]; RTX All Cohorts (N = 57),(5.3%)
same,"TEAE EOG QTc prolonged, Mild: number of subjects",[2]; RTX All Cohorts (N = 57),3
same,"TEAE Headache, Mild: frequency",[2]; RTX All Cohorts (N = 57),(5.3%)
same,"TEAE Headache, Mild: number of subjects",[2]; RTX All Cohorts (N = 57),3
same,"TEAE Hypertension, Mild: frequency",[2]; RTX All Cohorts (N = 57),(7.0%)
same,"TEAE Hypertension, Mild: number of subjects",[2]; RTX All Cohorts (N = 57),4
same,"TEAE Hypertension, Moderate: frequency",[2]; RTX All Cohorts (N = 57),(7.0%)
same,"TEAE Hypertension, Moderate: number of subjects",[2]; RTX All Cohorts (N = 57),4
same,"TEAE Hypoesthesia, Mild: frequency",[2]; RTX All Cohorts (N = 57),(8.8%)
same,"TEAE Hypoesthesia, Mild: number of subjects",[2]; RTX All Cohorts (N = 57),5
same,"TEAE Nausea, Mild: frequency",[2]; RTX All Cohorts (N = 57),(31.6%)
same,"TEAE Nausea, Mild: number of subjects",[2]; RTX All Cohorts (N = 57),18
same,"TEAE Nausea, Moderate: frequency",[2]; RTX All Cohorts (N = 57),(3.5%)
same,"TEAE Nausea, Moderate: number of subjects",[2]; RTX All Cohorts (N = 57),2
same,"TEAE Procedural pain, Mild: frequency",[2]; RTX All Cohorts (N = 57),(64.9%)
same,"TEAE Procedural pain, Mild: number of subjects",[2]; RTX All Cohorts (N = 57),37
same,"TEAE Procedural pain, Moderate: frequency",[2]; RTX All Cohorts (N = 57),(26.3%)
same,"TEAE Procedural pain, Moderate: number of subjects",[2]; RTX All Cohorts (N = 57),15
same,"TEAE Vomiting, Mild: frequency",[2]; RTX All Cohorts (N = 57),(14.0%)
same,"TEAE Vomiting, Mild: number of subjects",[2]; RTX All Cohorts (N = 57),8
same,"TEAE Vomiting, Moderate: frequency",[2]; RTX All Cohorts (N = 57),(3.5%)
same,"TEAE Vomiting, Moderate: number of subjects",[2]; RTX All Cohorts (N = 57),2
same,Dose-limiting toxicities,[2]; all cohorts,No dose-limiting toxicities
same,Maximum tolerated dose,[2]; all cohorts,not identified
same,Relationship between adverse events and dose,[2]; all cohorts,no apparent relationship
same,"Procedure-associated pain (post-procedural pain and injection site pain), patients reporting",[2]; all cohorts,91%
same,Procedure-associated pain reported as mild,[2]; all cohorts,65%
same,Procedure-associated pain reported as moderate,[2]; all cohorts,26%
same,Dose-limiting toxicities,[2]; dose escalation cohorts (N=40),No dose-limiting toxicities
same,Maximum tolerated dose,[2]; dose escalation cohorts (N=40),not identified
same,Relationship between adverse events and dose,[2]; dose escalation cohorts (N=40),no apparent relationship
same,"Procedure-associated pain (post-procedural pain and injection site pain), patients reporting",[2]; dose escalation cohorts (N=40),100%
same,Procedure-associated pain reported as mild,[2]; dose escalation cohorts (N=40),55%
same,Procedure-associated pain reported as moderate,[2]; dose escalation cohorts (N=40),45%
same,Adverse events of interest,"[2]; initial results, any dose group",nor adverse events of interest noted
same,Dose limiting toxicities (DLTs),"[2]; initial results, any dose group, to date",No dose limiting toxicities
same,"Pain at walking (10 point WOMAC pain scale), mean pain score lower versus control","[3]; 5 μg RTX, Day 84",4.7 points
same,"WOMAC A-C pain index, least squares mean difference versus placebo (MMRM)","[3]; 12.5 μg dose, 12 weeks, p=0.016, N=6",−14.20
same,"WOMAC A1 score, least squares mean difference versus placebo (MMRM)","[3]; 12.5 μg dose, 12 weeks, p=0.029, N=6",−2.70
same,"NPRS score, least squares mean difference versus placebo (MMRM)","[3]; 12.5 μg dose, 12 weeks, p=0.051, N=6",−2.29
same,"Weekly average NPRS pain score, mean change (standard deviation) from baseline to week 12","[3]; Cohort 4, 12.5 μg/5 ml, FIG. 2",−5.30 (1.94)
same,"Weekly average WOMAC question A1, mean change (standard deviation) from baseline to week 12","[3]; Cohort 4, 12.5 μg/5 ml, FIG. 3",−5.67 (1.51)
same,Patient reported WOMAC A1 and NPRS pain scores,[3]; all cohorts incl. volume and dose expansion cohorts,reduction
same,Improvements in patients of all dose groups,"[3]; all dose groups, ongoing trial",rapid and sustainable improvements
same,Patient reported WOMAC A1 and NPRS pain scores,"[3]; dose escalation cohorts (N=40), available unblinded data",reduction
same,Sustained clinical benefits / pain reduction sustained over time,"[3]; lowest dose (5 μg), determined at 84 days",sustained clinical benefits; also recorded: sustained over time
same,Onset of pain relief,"[3]; lowest dose tested, single 5 μg RTX injection into the knee joint",day following injection; also recorded: the day following drug administration
same,Patients reporting positive clinical benefits in pain reduction,"[3]; patients treated with the active drug, to date",a majority
same,"Patients achieving >70% reduction in pain versus baseline, NPRS score",[3]; pooled RTX-treated patients,41%
same,"Patients achieving >70% reduction in pain versus baseline, WOMAC A1 score",[3]; pooled RTX-treated patients,54%
same,"Weekly average NPRS pain score, change from baseline to week 12, difference versus pooled placebo","[3]; week 12, range over dose level cohorts",−0.34 to −2.29
same,"WOMAC question A1 (pain on walking on flat surface), least squares mean difference in change from baseline relative to placebo","[3]; week 12, range over dose level cohorts, 9 placebo, 28 RTX",−0.38 to −2.70 points
